Assay results from patent US10363284B2, “β-hairpin peptidomimetics” (POLYPHOR AG, priority 2012, dated 2019).
Positions of bridges follow the written chain, without caps; N, C: chain ends. Non-standard residues stand in square brackets, D forms with d. Residues, ends and D or L forms follow the SMILES beside them. dLys(iPr) = CC(C)NCCCC[C@@H](N)C(=O)O; Lys(iPr) = CC(C)NCCCC[C@H](N)C(=O)O; Orn(iPr) = CC(C)NCCC[C@H](N)C(=O)O; Ac3c = NC1(C(=O)O)CC1

Columns and labels:
[1] = system: human red blood cells (hRBC); assay type: cell-based; conditions: red cells of human, 1 h
Method: The peptides were tested for their hemolytic activity against human red blood cells (hRBC). Fresh hRBC were washed four times with phosphate buffered saline (PBS) and centrifuged for 10 min at 3000×g. Compounds (100 μM) were incubated with 20% hRBC (v/v) for 1 h at 37° C. and shaking at 300 rpm. The final erythrocyte concentration was approximately 0.9×10^9 cells/mL. A value of 0% and 100% cell lysis, respectively, was determined by incubation of hRBC in the presence of PBS containing 0.001% acetic acid and 2.5% Triton X-100 in H2O, respectively. The samples were centrifuged, the supernatants were 8-fold diluted in PBS buffer and the optical densities (OD) were measured at 540 nm. The 100% lyses value (OD540H2O) gave an OD540 of approximately 0.5-1.0.
Percent hemolysis was calculated as follows: (OD540peptide/OD540H2O)×100%.

[2] = Plasma stability, human plasma; assay type: in vitro ADME; conditions: for human pl. T1/2: 37° C.; for remaining at 24 h, 10 μM: 1440 min, read-out: human pl. cpd left at 1440 min
Method: The stability of the peptides in human and mouse plasma was determined by applying the following method: 346.5 μL/deep well of freshly thawed human plasma (Basler Blutspende-dienst) and mouse plasma (Harlan Sera-Lab, UK), respectively, were spiked with 3.5 μL/well of compound dissolved in DMSO/H2O (90/10 [v/v], 1 mM, triplicate) and incubated at 37° C. At t=0, 15, 30, 60, 120, 240 and 1440 min aliquots of 50 μL were transferred to filtration plate wells containing 150 μL/well of 2% formic acid in acetonitrile. Following shaking for 2 min the occurred suspensions were filtrated by vacuum. 100 μL of each filtrate were transferred to a propylene microtiter plate and dried under N2. The residual solids were reconstituted by adding 100 μL/well of water/acetonitrile, 95/5 (v/v)+0.2% formic acid and analyzed by LC/MS as follows: Column: Waters, XBridge C18, mobile phases: (A) water+0.1% formic acid and (B) acetonitrile/water, 95/5 (v/v)+0.1% formic acid, gradient: 5%-100% (B) in 1.8 minutes, electrospray ionization, MRM detection (triple quadrupole). The peak areas were determined and triplicate values are averaged. The stability is expressed in percent of the initial value at t=0. (tx/t0×100). By using the TREND function of EXCEL (Microsoft Office 2003) T1/2 were determined.

CXCR4 receptor = target: T1, CXCR4 receptor (Homo sapiens, UniProt P61073); experiment: Chemotactic assay (cell migration assay), Namalwa cells, SDF-1 gradient; assay type: cell-based
T1 construct: CXCR4 natively expressing non-adherent cells; endogenous in cells; host or cells: Namalwa cells (ATCC CRL-1432)
Method: Namalwa cells (CXCR4 natively expressing non-adherent cells, ATCC CRL-1432) were cultured in RPM11640 plus 10% FBS, and pen/strept. HELA cells were maintained in RPMI1640 plus 10% FBS, pen/strept and 2 mM L-glutamine. Cos-7 cells were grown in DMEM medium with […] glucose supplemented with 10% FCS, pen/strept and 2 mM L-glutamine. All cell lines were grown at 37° C. at 5% CO2. Cell media, media supplements, PBS-buffer, HEPES, antibiotic/antimycotic, pen/strept, non essential amino acid, L-glutamine, β-mercaptoethanol and sera were purchased from Gibco (Pailsey, UK). All fine chemicals were supplied by Merck (Darmstadt, Germany).
The chemotactic response of Namalwa cells (ATCC CRL-1432) to a gradient of stromal cell-derived factor 1α (SDF-1) was measured using a modified Boyden chamber chemotaxis system (ChemoTx; Neuroprobe). […] Migrated cells were transferred using a “funnel” adaptor to a receiving 96-well plate and the cell number was determined by using the CyQuant™ NF cell proliferation assay (Invitrogen) based on the measurement of cellular DNA content via fluorescent dye binding. […] After incubation for 0.5 h at room temperature the plate was sealed and the fluorescence intensity of each sample was measured by using a Wallac 1420 VICTOR^2™ plate reader (PerkinElmer) with excitation at 485 nm and emission detection at 535 nm. […]

T1 sequence (P61073 whole entry): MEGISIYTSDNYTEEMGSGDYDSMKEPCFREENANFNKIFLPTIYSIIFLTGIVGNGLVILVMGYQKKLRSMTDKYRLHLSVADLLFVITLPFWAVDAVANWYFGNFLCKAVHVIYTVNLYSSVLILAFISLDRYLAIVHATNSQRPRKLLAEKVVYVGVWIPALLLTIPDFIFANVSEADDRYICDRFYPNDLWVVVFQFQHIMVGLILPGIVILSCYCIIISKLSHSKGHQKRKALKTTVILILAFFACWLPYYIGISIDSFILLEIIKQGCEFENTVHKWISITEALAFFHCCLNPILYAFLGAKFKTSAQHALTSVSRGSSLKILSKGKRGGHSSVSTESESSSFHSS

| Structure (SMILES) | Hemolysis at 100 μM [1] | human pl. T1/2 [2] | remaining at 24 h, 10 μM [2] | IC50 (CXCR4 receptor) |
| --- | --- | --- | --- | --- |
| CC(C)NCCCC[C@@H]1NC(=O)[C@H](CCC(N)=O)NC(=O)[C@H](Cc2ccc(O)cc2)NC(=O)[C@@H]2CSSC[C@H](NC(=O)[C@H](Cc3ccc(O)cc3)NC(=O)[C@H](Cc3c[nH]cn3)NC(=O)[C@H](Cc3ccc(O)cc3)NC(=O)[C@@H]3CCCN3C(=O)[C@@H](CCCCNC(C)C)NC1=O)C(=O)N[C@@H](CO)C(=O)N[C@@H](C)C(=O)N1CCC[C@@H]1C(=O)N[C@@H](CCCNC(C)C)C(=O)N[C@@H](CCCNC(=N)N)C(=O)N[C@@H](Cc1ccc(O)cc1)C(=O)N2 [Ex. 1, cyclo(-Tyr^1-His^2-Tyr^3-Cys^4-Ser^5-Ala^6-^DPro^7-Orn(iPr)^8-Arg^9-Tyr^10-Cys^11-Tyr^12-Gln^13-Lys(iPr)^14-^DLys(iPr)^15-Pro^16-), disulfide bond between Cys^4 and Cys^11] (cyclo(A[dP][Orn(iPr)]RYCYQ[Lys(iPr)][dLys(iPr)]PYHYCS); disulfide 6-15) | 1.0% | 24 h | 100% | 0.17 ± 0.1 nM |
| CC(C)NCCCC[C@@H]1NC(=O)[C@H](CCC(N)=O)NC(=O)[C@H](Cc2ccc(O)cc2)NC(=O)[C@@H]2CSSC[C@H](NC(=O)[C@H](Cc3ccc(O)cc3)NC(=O)[C@H](Cc3c[nH]cn3)NC(=O)[C@H](Cc3ccc(O)cc3)NC(=O)[C@@H]3CCCN3C(=O)[C@H]3CCCN3C1=O)C(=O)N[C@@H](CO)C(=O)NC1(CC1)C(=O)N1CCC[C@@H]1C(=O)N[C@@H](CCCNC(C)C)C(=O)N[C@@H](CCCNC(=N)N)C(=O)N[C@@H](Cc1ccc(O)cc1)C(=O)N2 [Ex. 2, cyclo(-Tyr^1-His^2-Tyr^3-Cys^4-Ser^5-Acc^6-^DPro^7-Orn(iPr)^8-Arg^9-Tyr^10-Cys^11-Tyr^12-Gln^13-Lys(iPr)^14-^DPro^15-Pro^16-), disulfide bond between Cys^4 and Cys^11] (cyclo(YHYCS[Ac3c][dP][Orn(iPr)]RYCYQ[Lys(iPr)][dP]P); disulfide 4-11) | 1.0% | 24 h | 87% | 0.32 ± 0.1 nM |
